Among the data in patent US20240307382A1, “MODULATORS OF THE INTEGRATED STRESS PATHWAY” (Calico Life Sciences LLC, priority 2017, published 2024) are EC50 values, retold here.

For this assay, the system named is HEK293T cells carrying the ATF4 luciferase reporter. The experiment in a line: ATF4-Luc assay (ATF4 luciferase reporter, tunicamycin-treated cells). In kind it is cell-based. Conditions: Homo sapiens, HEK-293T, 1 μg/mL tunicamycin, 7 hours. As for the experimental part: In order to test exemplary compounds of the invention in a cellular context, a stable VWMD cell line was first constructed. The ATF4 reporter was prepared by fusing the human full-length ATF4 5′-UTR (NCBI Accession No. BC022088.2) in front of the firefly luciferase (FLuc) coding sequence lacking the initiator methionine as described in Sidrauski et al (eLife 2013). The construct was used to produce recombinant retroviruses using standard methods and the resulting viral supermatant was used to transduce ITEK293T cells, which were then subsequently selected with puromycin to generate a stable cell line.
HTEK293T cells carrying the ATF4 luciferase reporter were plated on polylysine coated 384-well plates (Greiner Bio-one) at 30,000 cells per well. Cells were treated the next day with 1 μg/mL tunicamycin and 200 nM of a compound of Formula (I) for 7 hours. Luminescence was measured using One Glo (Promega) as specified by the manufacturer. Cells were maintained in DMEM with L-glutamine supplemented with 10% heat-inactivated FBS (Gibco) and Antibiotic-Antimycotic solution (Gibco).
Table 2 below summarizes the EC50 data obtained using the ATF4-Luc assay for exemplary compounds of the invention.
For orientation: Reporter assays use an easily measured gene product as a stand-in for the process of interest.
Broadly, the EC50 is the concentration needed to bring the measured effect to its halfway point. On to `O=C(COc1ccc(Cl)c(F)c1)NC12CCC(NC(=O)c3ccc(OC(F)(F)F)cn3)(C1)C2` [Compound 297, N-{4-[2-(4-chloro-3-fluorophenoxy)acetamido]bicyclo[2.1.1]hexan-1-yl}-5-(trifluoromethoxy)pyridine-2-carboxamide], for which the EC50 was under 0.05 µM.

Take `O=C(COc1ccc(Cl)c(F)c1)NC12CCC(NC(=O)c3cc(CO)ccn3)(C1)C2` [Compound 333, N-{4-[2-(4-chloro-3-fluorophenoxy)acetamido]bicyclo[2.1.1]hexan-1-yl}-4-(hydroxymethyl)pyridine-2-carboxamide]: the EC50 is 1 to 2 µM.

Turning to `N#CCCc1ccc(C(=O)NC23CC(NC(=O)COc4ccc(Cl)c(F)c4)(C2)C3)nc1` [Compound 335, N-{3-[2-(4-chloro-3-fluorophenoxy)acetamido]bicyclo[1.1.1]pentan-1-yl}-5-(2-cyanoethyl)pyridine-2-carboxamide], the EC50 was in the range of 0.05 to 0.25 µM.

Turning to `O=C(COc1ccc(Cl)c(Cl)c1)NC12CC(NC(=O)c3ccc(Cl)cn3)(C1)C2` [Compound 691, 5-chloro-N-{3-[2-(3,4-dichlorophenoxy)acetamido]bicyclo[1.1.1]pentan-1-yl}pyridine-2-carboxamide], the EC50 was under 0.05 µM.

For `COc1ccnc(C(=O)NC23CCC(NC(=O)COc4ccc(Cl)c(F)c4)(CC2)C(O)C3)c1` (centres unmarked) [Compound 924, N-{4-[2-(4-chloro-3-fluorophenoxy)acetamido]-3-hydroxybicyclo[2.2.2]octan-1-yl}-4-methoxypyridine-2-carboxamide], the EC50 was 1 to 2 µM.

For `O=C(COc1ccc(Cl)c(F)c1)NC12CCC(NC(=O)c3ccc(-c4ccc(F)cc4)cn3)(CC1)CC2O` (centres unmarked) [Compound 939, N-{4-[2-(4-chloro-3-fluorophenoxy)acetamido]-3-hydroxybicyclo[2.2.2]octan-1-yl}-5-(4-fluorophenyl)pyridine-2-carboxamide], the EC50 was in the range of 0.25 to 1 µM.

On to `CCc1cncc(C(=O)NC23CC(NC(=O)COc4ccc(Cl)c(F)c4)(C2)C3)c1` [Compound 948, N-{3-[2-(4-chloro-3-fluorophenoxy)acetamido]bicyclo[1.1.1]pentan-1-yl}-5-ethylpyridine-3-carboxamide], for which the EC50 was under 0.05 µM.

On to `CCc1cncc(C(=O)NC23CC(NC(=O)COc4ccc(Cl)c(Cl)c4)(C2)C3)c1` [Compound 949, N-{3-[2-(3,4-dichlorophenoxy)acetamido]bicyclo[1.1.1]pentan-1-yl}-5-ethylpyridine-3-carboxamide], for which the EC50 was under 0.05 µM.

In the case of `O=C(COc1ccc(Cl)c(F)c1)NC12CCC(NC(=O)c3cnc4cc(F)ccc4n3)(CC1)[C@@H](O)C2` [Compound 950, N-{(2S)-4-[2-(4-chloro-3-fluorophenoxy)acetamido]-2-hydroxybicyclo[2.2.2]octan-1-yl}-6-fluoroquinoxaline-2-carboxamide], the EC50 was under 0.05 µM.

As to `O=C(COc1ccc(Cl)c(F)c1)NC12CC(NC(=O)c3cnc4cc(F)ccc4n3)(C1)C2` [Compound 951, N-{3-[2-(4-chloro-3-fluorophenoxy)acetamido]bicyclo[1.1.1]pentan-1-yl}-6-fluoroquinoxaline-2-carboxamide], the EC50 was under 0.05 µM.

With `O=C(COc1ccc(Cl)c(F)c1)NC12CCC(NC(=O)c3cccc(-c4cccc(F)c4)n3)(CC1)CC2O` (centres unmarked) [Compound 952, N-{4-[2-(4-chloro-3-fluorophenoxy)acetamido]-3-hydroxybicyclo[2.2.2]octan-1-yl}-6-(3-fluorophenyl)pyridine-2-carboxamide], the EC50 is under 0.05 µM.

For the molecule `N#Cc1cnccc1NC12CC(NC(=O)COc3ccc(Cl)c(F)c3)(C1)C2` [Compound 953, 2-(4-chloro-3-fluorophenoxy)-N-{3-[(3-cyanopyridin-4-yl)amino]bicyclo[1.1.1]pentan-1-yl}acetamide], the EC50 fell in the range of 0.05 to 0.25 µM.

Consider `O=C(COc1ccc(Cl)c(F)c1)NC12CC(Nc3cccc(-n4ccccc4=O)n3)(C1)C2` [Compound 954, 2-(4-chloro-3-fluorophenoxy)-N-{3-[(2-oxo-2H-[1,2′-bipyridin]-6′-yl)amino]bicyclo[1.1.1]pentan-1-yl}acetamide], for which the EC50 is over 2 µM.

As for `O=C(COc1ccc(Cl)c(F)c1)NC12CC(Nc3ccnc(-n4ccnc4)c3)(C1)C2` [Compound 955, 2-(4-chloro-3-fluorophenoxy)-N-(3-{[2-(1H-imidazol-1-yl)pyridin-4-yl]amino}bicyclo[1.1.1]pentan-1-yl)acetamide], the EC50 was in the range of 0.25 to 1 µM.

`O=C(COc1ccc(Cl)c(F)c1)NC12CC(Nc3cccc(N4CCOCC4)n3)(C1)C2` [Compound 957, 2-(4-chloro-3-fluorophenoxy)-N-(3-{[6-(morpholin-4-yl)pyridin-2-yl]amino}bicyclo[1.1.1]pentan-1-yl)acetamide]: the EC50 fell in the range of 0.25 to 1 µM.

On to `O=C(COc1ccc(Cl)c(F)c1)NC12CC(Nc3ccc4ncnc(N5CCOCC5)c4c3)(C1)C2` [Compound 958, 2-(4-chloro-3-fluorophenoxy)-N-(3-{[4-(morpholin-4-yl)quinazolin-6-yl]amino}bicyclo[1.1.1]pentan-1-yl)acetamide], for which the EC50 is 0.05 to 0.25 µM.

For the molecule `CN1CCN(c2ncnc3ccc(NC45CC(NC(=O)COc6ccc(Cl)c(F)c6)(C4)C5)cc23)CC1` [Compound 959, 2-(4-chloro-3-fluorophenoxy)-N-(3-{[4-(4-methylpiperazin-1-yl)quinazolin-6-yl]amino}bicyclo[1.1.1]pentan-1-yl)acetamide], the EC50 was over 2 µM.

Turning to `COC(=O)c1ccc2nccc(NC34CC(NC(=O)COc5ccc(Cl)c(F)c5)(C3)C4)c2c1` [Compound 960, methyl 4-({3-[2-(4-chloro-3-fluorophenoxy)acetamido]bicyclo[1.1.1]pentan-1-yl}amino)quinoline-6-carboxylate], the EC50 is under 0.05 µM.

Take `NC(=O)c1cccc(NC23CC(NC(=O)COc4ccc(Cl)c(F)c4)(C2)C3)n1` [Compound 961, 6-({3-[2-(4-chloro-3-fluorophenoxy)acetamido]bicyclo[1.1.1]pentan-1-yl}amino)pyridine-2-carboxamide]: the EC50 fell in the range of 1 to 2 µM.

For `O=C(COc1ccc(Cl)c(F)c1)NC12CC(Nc3cc(N4CCCC4)ccn3)(C1)C2` [Compound 962, 2-(4-chloro-3-fluorophenoxy)-N-(3-{[4-(pyrrolidin-1-yl)pyridin-2-yl]amino}bicyclo[1.1.1]pentan-1-yl)acetamide], the EC50 was 1 to 2 µM.

Consider `O=C(COc1ccc(Cl)c(F)c1)NC12CC(Nc3cc(N4CCOCC4)ccn3)(C1)C2` [Compound 963, 2-(4-chloro-3-fluorophenoxy)-N-(3-{[4-(morpholin-4-yl)pyridin-2-yl]amino}bicyclo[1.1.1]pentan-1-yl)acetamide], for which the EC50 is over 2 µM.

In the case of `COC(=O)c1ccnc(NC23CC(NC(=O)COc4ccc(Cl)c(F)c4)(C2)C3)c1` [Compound 964, methyl 2-({3-[2-(4-chloro-3-fluorophenoxy)acetamido]bicyclo[1.1.1]pentan-1-yl}amino)pyridine-4-carboxylate], the EC50 is over 2 µM.

Take `CCOC(=O)c1cncc(NC23CC(NC(=O)COc4ccc(Cl)c(F)c4)(C2)C3)c1` [Compound 965, ethyl 5-({3-[2-(4-chloro-3-fluorophenoxy)acetamido]bicyclo[1.1.1]pentan-1-yl}amino)pyridine-3-carboxylate]: the EC50 fell in the range of 0.25 to 1 µM.

In the case of `O=C(COc1ccc(Cl)c(F)c1)NC12CC(Nc3cnc4nccnc4c3)(C1)C2` [Compound 966, 2-(4-chloro-3-fluorophenoxy)-N-{3-[(pyrido[2,3-b]pyrazin-7-yl)amino]bicyclo[1.1.1]pentan-1-yl}acetamide], the EC50 is 0.25 to 1 µM.

With `CN(C(=O)c1cc(C(F)F)no1)C12CCC(NC(=O)COc3ccc(Cl)c(F)c3)(CC1)[C@@H](O)C2` [Compound 967, N-{(3S)-4-[2-(4-chloro-3-fluorophenoxy)acetamido]-3-hydroxybicyclo[2.2.2]octan-1-yl}-3-(difluoromethyl)-N-methyl-1,2-oxazole-5-carboxamide], the EC50 was 1 to 2 µM.

For `Cc1cc(C(=O)N(C)C23CCC(NC(=O)COc4ccc(Cl)c(Cl)c4)(CC2)[C@@H](O)C3)on1` [Compound 968, N-{(3S)-4-[2-(3,4-dichlorophenoxy)acetamido]-3-hydroxybicyclo[2.2.2]octan-1-yl}-N,3-dimethyl-1,2-oxazole-5-carboxamide], the EC50 is 1 to 2 µM.

Turning to `O=C(COc1ccc(Cl)c(F)c1)NC12CCC(NC(=O)c3coc(C(F)F)n3)(CC1)C[C@@H]2O` [Compound 969, N-{(3S)-4-[2-(4-chloro-3-fluorophenoxy)acetamido]-3-hydroxybicyclo[2.2.2]octan-1-yl}-2-(difluoromethyl)-1,3-oxazole-4-carboxamide], the EC50 was under 0.05 µM.

In the case of `CC(O)c1ncc(C(=O)NC23CCC(NC(=O)COc4ccc(Cl)c(F)c4)(CC2)CC3)s1` (centres unmarked) [Compound 970, N-{4-[2-(4-chloro-3-fluorophenoxy)acetamido]bicyclo[2.2.2]octan-1-yl}-2-(1-hydroxyethyl)-1,3-thiazole-5-carboxamide], the EC50 is over 2 µM.

As for `O=C(COc1ccc(Cl)c(Cl)c1)NC12CC(NC(=O)c3cc(O)c4cc(Cl)ccc4n3)(C1)C2` [Compound 971, 6-chloro-N-{3-[2-(3,4-dichlorophenoxy)acetamido]bicyclo[1.1.1]pentan-1-yl}-4-hydroxyquinoline-2-carboxamide], the EC50 was under 0.05 µM.
